Measured values as given in US8450374B2, “Pan-antagonists for the androgen receptor and androgen receptor mutants associated with anti-androgen withdrawal” (priority 2009, dated 2013).
“Also recorded” adds a separate entry of the source.

Columns and labels:
AR T877A = target: T1, AR T877A (Homo sapiens, UniProt P10275, T878A); test: Transcription assay (ARE-luciferase reporter) in CV-1 cells, AR T877A; type: cell-based; set-up: expressed in transfected cells; host or cells: CV-1; conditions: for Antagonist efficacy (RLU value at IC50), AR T877A: in competition with 10 nM DHT
T1 sequence (P10275 1-920 T878A): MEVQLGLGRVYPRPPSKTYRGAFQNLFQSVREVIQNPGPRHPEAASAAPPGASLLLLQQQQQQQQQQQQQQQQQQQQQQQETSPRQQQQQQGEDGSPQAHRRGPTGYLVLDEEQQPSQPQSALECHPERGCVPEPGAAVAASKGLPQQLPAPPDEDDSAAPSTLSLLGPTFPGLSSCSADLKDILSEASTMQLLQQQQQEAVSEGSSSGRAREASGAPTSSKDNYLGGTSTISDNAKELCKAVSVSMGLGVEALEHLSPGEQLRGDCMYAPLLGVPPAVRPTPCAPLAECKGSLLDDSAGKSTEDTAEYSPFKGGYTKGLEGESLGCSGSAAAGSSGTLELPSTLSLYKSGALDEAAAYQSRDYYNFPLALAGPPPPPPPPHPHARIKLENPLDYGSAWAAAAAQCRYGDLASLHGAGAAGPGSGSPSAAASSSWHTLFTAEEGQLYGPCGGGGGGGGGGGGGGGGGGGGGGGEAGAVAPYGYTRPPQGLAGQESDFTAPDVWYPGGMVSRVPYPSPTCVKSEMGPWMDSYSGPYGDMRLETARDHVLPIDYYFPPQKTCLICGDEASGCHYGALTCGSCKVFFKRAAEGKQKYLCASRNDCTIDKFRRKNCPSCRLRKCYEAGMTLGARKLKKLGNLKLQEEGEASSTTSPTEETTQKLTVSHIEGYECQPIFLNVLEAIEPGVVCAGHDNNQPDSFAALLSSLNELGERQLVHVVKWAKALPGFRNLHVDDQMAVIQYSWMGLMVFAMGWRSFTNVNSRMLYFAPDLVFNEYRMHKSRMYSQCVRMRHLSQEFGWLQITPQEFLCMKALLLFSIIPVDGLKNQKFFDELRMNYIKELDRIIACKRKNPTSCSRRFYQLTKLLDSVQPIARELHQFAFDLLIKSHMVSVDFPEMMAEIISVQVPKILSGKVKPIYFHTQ
Experimental: Twenty-four hours prior to transfection, CV-1 cells were seeded at a density of 45,000 cells per well in 24-well cell culture plates and grown in phenol red free Dulbecco's Modified Eagle Medium (DMEM) supplemented with 10% cosmic calf serum (COS). ARE-luciferase reporter and Renilla-Luc as the internal standard and a prokaryotic expression vector encoding the wild-type androgen receptor or mutant androgen receptor were transfected with Lipofectamine (Invitrogen) following manufacturer's protocol. Five hours after transfection, media was added containing the appropriate concentrations of ligands. The cells were allowed to incubate for 38 hours before harvesting by passive lysis buffer. Cell extracts were immediately assayed using the Dual Luciferase Assay (Promega) with a Perkin-Elmer Microbeta Luminometer. […] Dose-response data was analyzed by nonlinear regression analysis using GraphPad Prism.

[1] = target: T2, AR ligand-binding domain (LBD) (Homo sapiens, UniProt P10275); test: Coactivator peptide recruitment by TR-FRET; type: biochemical; conditions: read after 2 h and 4 h incubation
T2 construct: purchased Invitrogen PV8431
T2 sequence (P10275 669-900 limits assumed): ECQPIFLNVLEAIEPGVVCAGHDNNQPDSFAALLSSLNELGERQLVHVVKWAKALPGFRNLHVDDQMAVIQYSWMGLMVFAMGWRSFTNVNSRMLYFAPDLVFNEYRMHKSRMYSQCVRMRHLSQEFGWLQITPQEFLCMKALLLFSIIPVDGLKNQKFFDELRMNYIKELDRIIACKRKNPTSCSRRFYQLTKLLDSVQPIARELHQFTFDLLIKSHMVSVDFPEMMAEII
Experimental: Briefly, serial dilutions of ligand stocks solutions (in DMSO) were made in TR-FRET coregulator buffer A in a 384 well plate. To each well was added a 4×-stock solution of the AR-LBD followed by a 4× stock solution of fluorescein D-11 peptide and lanthanide-labeled antiGST antibody. The plates were read by time resolved fluorescence after 2 h and 4 h incubation.

mouse prostates = test: Prostate apoptosis by TUNEL after IP PAN52; type: in vivo, Male C57Bl/6 mice; conditions: 25 mg/kg/day IP, day 3 and day 5, TUNEL
Experimental: FIG. 17. Quantification of apoptotic cells from prostate tissues where mice were treated short-term by intraperitoneal (IP) injection with PAN52 at 25 mg/kg/day versus vehicle control for either 3 days or 5 days (right). Single 20× magnification fields from each of four lobes of mouse prostate glands were counted in each mouse.

[2] = target: T3, AR protein levels in LNCaP cells (Homo sapiens, UniProt P10275, T878A); test: AR downregulation by western blot, LNCaP cells; type: cell-based; conditions: LNCaP cells, 10, 50 or 100 μM, 24 h
T3 construct: endogenous in cells; host or cells: LNCaP
T3 sequence (P10275 1-920 T878A): T1 sequence (P10275 1-920 T878A)
Experimental: (§1) Compounds that down regulate the levels of AR in prostate cancer may be effective in androgen dependent cells and anti-androgen resistant cells that over express the androgen receptor. […] LNCaP or CRW22RV1 cells were treated with 10 μM, 50 μM or 100 μM compound for 24 h. Cells were harvested and lysed. Cell lysates were analyzed by SDS-PAGE followed by immunostaining with anti-AR and anti-lamin antibodies (see FIGS. 15 and 16).

[3] = system: AR protein levels in CRW22 cells; test: AR downregulation by western blot, CRW22RV1 cells; type: cell-based; conditions: CRW22RV1 cells, 10, 50 or 100 μM, 24 h
Experimental: as §1

SMILES | IC50 (AR T877A) [µM] | Antagonist efficacy (RLU value at IC50), AR T877A (AR T877A) | Coactivator peptide (D11, FXXLF) association with AR(LBD) [1] | Apoptosis in prostate compared to control (mouse prostates) | AR protein levels relative to bicalutamide, DHT or DMSO controls [2] | AR protein levels relative to bicalutamide, DHT or DMSO controls [3]
CN(C)CCCOc1cccc(Cc2ccccc2S(=O)(=O)CC(C)(O)C(=O)Nc2ccc(C#N)c(C(F)(F)F)c2)c1 (stereo not drawn) [PAN22] | 1.8 ± 0.3 | (53% ± 3.8%) |  |  |  | 
CC(O)(CS(=O)(=O)c1ccccc1-c1ccccc1O)C(=O)Nc1ccc(C#N)c(C(F)(F)F)c1 (stereo not drawn) [PAN41, N-(4-cyano-3-(trifluoromethyl)phenyl)-2-hydroxy-3-(2′-hydroxybiphenyl-2-ylsulfonyl)-2-methylpropanamide] | 3.9 ± 1.9 | (53% ± 10%) |  |  |  | 
CN(C)CCCOc1cccc(-c2ccccc2S(=O)(=O)CC(C)(O)C(=O)Nc2ccc(C#N)c(C(F)(F)F)c2)c1 (stereo not drawn) [PAN52] | 4 ± 2.2 | (52% ± 2.5%) | do not show coactivator association | increase in apoptosis; also recorded: induced rapid apoptosis | downregulation of AR protein levels | downregulation of AR protein levels
CN(C)CCCOc1ccc(-c2ccccc2S(=O)(=O)CC(C)(O)C(=O)Nc2ccc(C#N)c(C(F)(F)F)c2)cc1 (stereo not drawn) [PAN62] | 5 ± 3.2 | (56% ± 5.9%) |  |  |  | 
